Laboratory results taken from patent US20110009351A1, “SCREENING ASSAY TO IDENTIFY CORRECTORS OF PROTEIN TRAFFICKING DEFECTS” (Traffick Therepeutics Inc., priority 2007, published 2011).

What was measured:
Format in all cases: cell-based
ΔF508-CFTR [1] = target: T1, ΔF508-CFTR (Homo sapiens, UniProt P13569, DEL508-508); test: three stage ELISA of CFTR surface expression, BHK cells expressing ΔF508-CFTR; parameters: which was then ligated into full length pNUT-CFTR linearized using Hpa1 and Pml1; expressed in transfected cells; details: 10% glycerol or 1 mM sodium 4-phenylbutyrate, 24 hours
Description: Cells were screened for CFTR surface expression using a three stage ELISA system (Pierce Inc., USA). Briefly, BHK cells expressing 3HA-tagged ΔF508-CFTR were seeded in 96-well plates (Corning, USA) at 30,000 cells per well and incubated for 24 h at 37° C. Each well was treated with a test compound for 24 h, then cells were fixed in 4% paraformaldehyde solution and washed with PBS containing 0.1% bovine serum albumin and 0.05% tween-20. Cells were blocked for 1 h in solution containing 3% normal horse serum in PBS at room temperature. […] After washing four more times, the cells were exposed to 3,3′,5,5′ tetramethylbenzidine (Pierce Inc., USA) for 15 min, sulphuric acid (2M) was added, and absorbance was measured at 450 nm (Power-Wavex Bio-tek Instruments).
To determine if cell surface expression of CFTR could be quantified in a high-throughput screen using this assay, cells expressing tagged versions of wt or ΔF508-CFTR were seeded in 96-well plates, treated with 10% glycerol and monitored as light absorbance using an enzyme-linked assay system. As expected, untreated ΔF508-CFTR cells had low absorbance since they expressed little CFTR on their cell surface under control conditions (FIG. 3A).

ΔF508-CFTR [2] = target: T1, ΔF508-CFTR; parameters: which was then ligated into full length pNUT-CFTR linearized using Hpa1 and Pml1; expressed in transfected cells; details: for hit in screen (class letter) / hit in screen (score): Prestwick library, initial corrector assay; for hit in screen (class letter): BHK cells; for hit in screen (score): standard deviations above untreated controls
Method in brief: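 BHK cells stably expressing 3HA-tagged ΔF508-CFTR (tags in fourth extracellular loop) treated with compound at 20 μM final for 24 h at 37° C. Surface ΔF508-CFTR measured on fixed, non-permeabilised cells by anti-HA/FITC immunofluorescence (488/510 nm), relative to untreated-well background; hits retested in duplicate, intrinsically fluorescent compounds excluded.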

F508del CFTR = target: T2, F508del CFTR (Homo sapiens, UniProt P13569, DEL508-508); test: YFP fluorescence quenching functional assay (iodide influx), HEK293 cells with F508del CFTR and halide sensitive YFP; details: 10 μM, 24 h, nc = 100% pc = 69.2; for remaining activity at 10 µM: HEK293, read-out: % YFP quench
T2 construct: expressed in transfected cells; host or cells: HEK293 Griptite cells stably expressing F508del CFTR, transiently transfected with halide-sensitive eYFP
Method in brief: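 HEK293 Griptite cells stably expressing F508del CFTR, transiently transfected with halide-sensitive eYFP, treated 24 h with 10 μM compound in triplicate, then stimulated 20 min with 25 μM forskolin, 45 μM IBMX and 50 μM genistein. YFP quench after 50 mM iodide imaged 15 times over 40 s on 150-300 cells/well.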

T2 sequence (P13569 with tags, fused parts or gaps DEL508-508): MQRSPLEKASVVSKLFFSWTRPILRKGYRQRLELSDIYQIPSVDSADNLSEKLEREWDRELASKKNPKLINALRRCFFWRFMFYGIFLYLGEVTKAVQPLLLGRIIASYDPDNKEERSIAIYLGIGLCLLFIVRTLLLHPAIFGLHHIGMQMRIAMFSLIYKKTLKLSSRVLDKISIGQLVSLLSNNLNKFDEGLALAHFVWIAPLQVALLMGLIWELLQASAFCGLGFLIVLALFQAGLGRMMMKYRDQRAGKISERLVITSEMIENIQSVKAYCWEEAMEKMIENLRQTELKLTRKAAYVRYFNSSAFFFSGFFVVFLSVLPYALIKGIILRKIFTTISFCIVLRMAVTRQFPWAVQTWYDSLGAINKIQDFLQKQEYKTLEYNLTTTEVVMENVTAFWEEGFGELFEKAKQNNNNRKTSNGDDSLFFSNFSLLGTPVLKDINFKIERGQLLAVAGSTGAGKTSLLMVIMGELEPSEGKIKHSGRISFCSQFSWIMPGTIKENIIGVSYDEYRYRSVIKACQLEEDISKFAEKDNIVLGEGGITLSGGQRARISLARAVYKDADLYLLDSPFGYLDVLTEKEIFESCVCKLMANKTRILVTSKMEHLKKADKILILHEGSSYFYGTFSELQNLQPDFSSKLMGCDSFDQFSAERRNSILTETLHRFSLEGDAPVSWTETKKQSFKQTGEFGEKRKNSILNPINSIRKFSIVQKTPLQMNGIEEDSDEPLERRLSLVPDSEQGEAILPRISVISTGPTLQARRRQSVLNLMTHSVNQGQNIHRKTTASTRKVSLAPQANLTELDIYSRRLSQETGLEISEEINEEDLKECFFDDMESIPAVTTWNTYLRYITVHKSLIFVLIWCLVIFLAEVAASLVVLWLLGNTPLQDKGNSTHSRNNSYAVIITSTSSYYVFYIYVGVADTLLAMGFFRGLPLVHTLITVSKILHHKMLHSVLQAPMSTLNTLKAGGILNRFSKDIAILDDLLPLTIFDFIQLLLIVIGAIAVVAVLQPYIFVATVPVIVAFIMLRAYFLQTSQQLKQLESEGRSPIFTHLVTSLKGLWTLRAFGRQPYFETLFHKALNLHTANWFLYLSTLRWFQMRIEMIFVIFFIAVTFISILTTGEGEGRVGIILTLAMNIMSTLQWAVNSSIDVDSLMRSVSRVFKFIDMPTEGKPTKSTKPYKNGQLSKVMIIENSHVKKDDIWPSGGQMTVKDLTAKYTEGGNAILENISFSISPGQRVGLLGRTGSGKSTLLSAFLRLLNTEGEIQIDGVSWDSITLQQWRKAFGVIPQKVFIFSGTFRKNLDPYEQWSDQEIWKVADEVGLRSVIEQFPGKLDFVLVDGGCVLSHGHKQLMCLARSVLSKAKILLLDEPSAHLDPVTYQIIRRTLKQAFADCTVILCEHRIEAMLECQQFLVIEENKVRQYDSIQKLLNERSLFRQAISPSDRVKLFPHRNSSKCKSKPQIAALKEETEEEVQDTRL
T1 sequence (P13569 with tags, fused parts or gaps DEL508-508): as above

| Compound | plasma membrane signal (absorbance), words (ΔF508-CFTR [1]) | increase in signal, suitability as positive control for the corrector assay screen (ΔF508-CFTR [2]; kifunesine 100 μM, Sodium 4 Phenylbutyrate 1 mM, curcumin 40 μM, 24 hours) | % YFP quench (F508del CFTR) [%] | hit in screen (class letter) (ΔF508-CFTR [2]) | hit in screen (score) (ΔF508-CFTR [2]) | remaining activity at 10 µM (F508del CFTR) [%] |
| --- | --- | --- | --- | --- | --- | --- |
| O=C([O-])CCCc1ccccc1.[Na+] [sodium 4-phenylbutyrate] | increased the plasma membrane signal | not sufficient to act as a positive control | – | – | – | – |
| CN(C)CCOC(=O)COc1ccc(Cl)cc1.Cl [Meciofenoxate hydrochloride] | – | – | 877 | W (Medium and weak hits were defined as compounds giving a cell fluorescence signal that was between 2 and 3 or 1 and 2 standard deviations, respectively, above untreated control wells) | 1.1 | – |
| CCOC(=O)n1ccn(C)c1=S [Carbimazole] | – | – | – | W (Medium and weak hits were defined as compounds giving a cell fluorescence signal that was between 2 and 3 or 1 and 2 standard deviations, respectively, above untreated control wells) | 1.0 | 95 |
| Cytisine (−) | – | – | 97 | M (Medium and weak hits were defined as compounds giving a cell fluorescence signal that was between 2 and 3 or 1 and 2 standard deviations, respectively, above untreated control wells) | 2.0 | – |
| C[N+](C)(C)CCCCCC[N+](C)(C)C.O.O.[Br-].[Br-] [Hexamethonium dibromide dihydrate] | – | – | 98 | W (Medium and weak hits were defined as compounds giving a cell fluorescence signal that was between 2 and 3 or 1 and 2 standard deviations, respectively, above untreated control wells) | 1.1 | – |
| C[C@]12CC[C@@H]3c4ccc(OS(=O)(=O)O)cc4CC[C@H]3[C@@H]1CCC2=O [Estropipate] | – | – | – | W (Medium and weak hits were defined as compounds giving a cell fluorescence signal that was between 2 and 3 or 1 and 2 standard deviations, respectively, above untreated control wells) | 1.0 | 83 |
| O=C([O-])c1ccccc1-c1c2cc(Br)c(=O)cc-2oc2[c]([Hg+])c([O-])c(Br)cc12.[Na+].[Na+].[OH-] [Merbromin] | – | – | 107 | S (strong hits were initially identified as those compounds giving a cell fluorescence signal that was ≧3 standard deviations (SD) above untreated control wells) | 3.6 | – |
| N[C@H]1CONC1=O [(S)-(−)-Cycloserine] | – | – | 98 | W (Medium and weak hits were defined as compounds giving a cell fluorescence signal that was between 2 and 3 or 1 and 2 standard deviations, respectively, above untreated control wells) | 1.4 | – |
| Nc1ccc(S(=O)(=O)c2ccc(N)cc2)cc1 [Dapsone] | – | – | – | W (Medium and weak hits were defined as compounds giving a cell fluorescence signal that was between 2 and 3 or 1 and 2 standard deviations, respectively, above untreated control wells) | 1.1 | 88 |
| CCN(CC)CC#CCOC(=O)C(O)(c1ccccc1)C1CCCCC1 (centres unmarked) [Oxybutynin chloride] | – | – | – | W (Medium and weak hits were defined as compounds giving a cell fluorescence signal that was between 2 and 3 or 1 and 2 standard deviations, respectively, above untreated control wells) | 1.2 | 83 |
